# According to US8669072B2, “Oxadiazoline ligands for modulating the expression of exogenous genes via an ecdysone receptor complex” (Intrexon Corporation, priority 2003, dated 2014):
# Read-outs that look alike come from different tables or passages of the source.
# How the values were obtained:
# Cabbage Looper = assay: Insect toxicity feeding bioassay, CL; format: in vivo
# Description: (§1) The compound to be evaluated was dissolved in an appropriate solvent, usually a mix of acetone, methanol, and water. Test solutions were made by serial dilution of a stock test solution with acetone, methanol, and water. Initial evaluations were made at one or more concentrations on one or more of the following insects:
# (§2) Feeding bioassays were conducted in bioassay trays containing insect diet. Treatments were made by applying 50 μL of test solution to the surface of the diet in each of 5 wells. After the test solution dried, each well was infested with a single neonate larva. The trays were held for six days and then the mortality rating was determined for each treatment.
# Beet Armyworm = assay: Insect toxicity feeding bioassay, BAW; format: in vivo
# Description: as §1, §2
# [1] = tested on: MTA (two-spotted spider mite); assay: Insect toxicity contact bioassay, MTA; format: in vivo
# Description: as §1
# (§3) Contact bioassays (green peach aphid, two-spotted spider mite, white fly) were conducted by applying a solution of the test compound to the inside surface of a Petri dish. The solution was allowed to air-dry, then each dish was infested and the larvae from each treatment were transferred to a bioassay tray. The trays were held for one to seven days, and the mortality rating was determined for each treatment.
# [2] = target: T1, GAL4 DBD-CfEcR(DEF)/VP16AD-MmRXRE (Choristoneura fumiferana, UniProt O77240); assay: 13B3 assay: luciferase reporter gene induction in stable CHO clone 13B3; format: cell-based; conditions: for Fold Induction Average, 13B3 assay / fold induction at 33.3 µM: 48 h; for fold induction at 33.3 µM: read-out: Fold Induction Average, 13B3 assay
# T1 construct: The wild-type D, E, and F domains from spruce budworm Choristoneura fumiferana EcR (“CfEcR-DEF”)
# Method in brief: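 Stable CHO clone 13B3 co-expressing GAL4 DBD-CfEcR(DEF) and VP16AD-MmRXRE with a GAL4 RE-luciferase reporter; ligands from DMSO stocks diluted 300-fold. Luciferase read by luminescence 48 h after treatment, duplicate wells averaged. Fold induction = RLU treated/RLU DMSO; EC50 from three-parameter logistic fit.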
# Tobacco Budworm = assay: Insect toxicity bioassay, TBW; format: in vivo
# Description: as §1, §2
# Some of the tobacco budworm tests were conducted as follows. A test solution containing 600 ppm was made by dissolving a compound of the invention in a 1:1 acetone:methanol solution, then adding water to give a 5:5:90 acetone:methanol:water solution, and finally a surfactant was added at an equivalent of 7.37 g of surfactant per 100 L of test solution (1 ounce of surfactant per 100 gallons of test solution). Appropriate dilutions were prepared in water from the 600 ppm solution. A detached cotton leaf, Gossypium hirsutum was placed on moistened filter paper in a Petri dish (100×20 mms). The leaf was sprayed with the test solution using a rotating turntable sprayer and allowed to dry. The dish was infested with 10 first instar larvae of the tobacco budworm and covered with the lid. If the larvae were alive two days after treatment, fresh untreated cotton leaves were added. All treatments were maintained at 23.9-26.7° C. (75-80° F.) under fluorescent light in a well-ventilated room. Percent mortality was determined at four days after treatment.
# Bombyx mori EcR (VBE) = target: T2, Bombyx mori EcR (VBE) (Bombyx mori, UniProt P49881); assay: Z3 assay: β-galactosidase reporter gene induction in HEK-293 clone Z3 (CVBE / 6XEcRE LacZ); format: cell-based; conditions: for fold induction at 33 µM: read-out: Fold Induction Average, Z3 assay
# T2 construct: expressed in transfected cells; host or cells: Human HEK-293 cells, retrovirally infected, clone Z3
# T2 sequence (P49881 86-606 limits assumed): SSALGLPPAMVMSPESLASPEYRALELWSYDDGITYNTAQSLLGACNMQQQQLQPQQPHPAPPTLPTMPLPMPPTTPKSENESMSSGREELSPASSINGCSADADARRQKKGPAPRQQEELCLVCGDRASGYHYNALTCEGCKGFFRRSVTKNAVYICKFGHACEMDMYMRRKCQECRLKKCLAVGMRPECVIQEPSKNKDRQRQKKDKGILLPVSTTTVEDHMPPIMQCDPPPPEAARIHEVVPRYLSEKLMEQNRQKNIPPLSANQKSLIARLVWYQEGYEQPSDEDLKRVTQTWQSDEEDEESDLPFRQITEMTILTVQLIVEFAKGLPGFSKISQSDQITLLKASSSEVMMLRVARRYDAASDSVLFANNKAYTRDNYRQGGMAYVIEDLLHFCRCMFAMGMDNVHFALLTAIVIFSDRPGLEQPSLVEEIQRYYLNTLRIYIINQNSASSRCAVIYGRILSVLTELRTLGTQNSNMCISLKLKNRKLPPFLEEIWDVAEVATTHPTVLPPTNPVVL
# T2 sequence (P19793 1-462 partner): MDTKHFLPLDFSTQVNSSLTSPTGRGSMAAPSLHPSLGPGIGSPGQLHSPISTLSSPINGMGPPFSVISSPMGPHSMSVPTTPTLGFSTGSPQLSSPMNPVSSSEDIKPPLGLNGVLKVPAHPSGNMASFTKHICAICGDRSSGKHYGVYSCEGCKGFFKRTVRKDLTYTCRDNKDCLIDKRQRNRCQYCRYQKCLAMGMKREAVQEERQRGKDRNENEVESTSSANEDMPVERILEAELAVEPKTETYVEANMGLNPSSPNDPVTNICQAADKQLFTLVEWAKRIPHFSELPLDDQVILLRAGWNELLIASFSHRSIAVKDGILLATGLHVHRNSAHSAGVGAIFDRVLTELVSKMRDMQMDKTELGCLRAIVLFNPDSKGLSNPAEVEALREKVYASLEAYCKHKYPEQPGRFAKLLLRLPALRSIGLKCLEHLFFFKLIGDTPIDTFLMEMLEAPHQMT
# WFN (white fly) = assay: Insect toxicity contact bioassay, WFN; format: in vivo
# Description: as §1, §3
# [3] = target: T3, GAL4 DBD (1-147)-CfEcR(DEF)/VP16AD-βRXREF-LmUSPEF (Choristoneura fumiferana, UniProt O77240); assay: cell-based; conditions: for fold induction at 33.3 µM: 48 h, read-out: Fold Induction Average, 27-63 assay; for Rel Max FI, 27-63 assay: maximum fold induction relative to that of GS-E ligand
# T3 construct: The wild-type D, E, and F domains from spruce budworm Choristoneura fumiferana EcR (“CfEcR-DEF”)
# Description: Stably transfected cells were selected by Zeocin resistance. Individually isolated CHO cell clones were transiently transfected with a GAL4 RE-luciferase reporter (pFR Luc). 27-63 clone was selected using Hygromycin.
# Cells were trypsinized and diluted to a concentration of 2.5×10^4 cells mL. 100 μL of cell suspension was placed in each well of a 96 well plate and incubated at 37° C. under 5% CO2 for 24 h. Ligand stock solutions were prepared in DMSO and diluted 300 fold for all treatments.
# Luciferase reporter gene expression was measured 48 h after cell treatment using Bright-Glo™ Luciferase Assay System from Promega (E2650). Luminescence was detected at room temperature using a Dynex MLX microtiter plate luminometer.
# Each assay was conducted in two separate wells, and the two values were averaged. Fold inductions were calculated by dividing relative light units (“RLU”) in ligand treated cells with RLU in DMSO treated cells. EC50s were calculated from dose response data using a three-parameter logistic model.
# [4] = target: CfEcR (CDEF)/CfUSP, GST fusion protein (Choristoneura fumiferana, UniProt O77240); assay: CfEcR (CDEF)/CfUSP GST fusion protein assay; format: binding; conditions: GST fusion protein; read-out: CfEcR EC50
# Sequence of CfEcR (CDEF)/CfUSP, GST fusion protein (O77240 entry or part of it): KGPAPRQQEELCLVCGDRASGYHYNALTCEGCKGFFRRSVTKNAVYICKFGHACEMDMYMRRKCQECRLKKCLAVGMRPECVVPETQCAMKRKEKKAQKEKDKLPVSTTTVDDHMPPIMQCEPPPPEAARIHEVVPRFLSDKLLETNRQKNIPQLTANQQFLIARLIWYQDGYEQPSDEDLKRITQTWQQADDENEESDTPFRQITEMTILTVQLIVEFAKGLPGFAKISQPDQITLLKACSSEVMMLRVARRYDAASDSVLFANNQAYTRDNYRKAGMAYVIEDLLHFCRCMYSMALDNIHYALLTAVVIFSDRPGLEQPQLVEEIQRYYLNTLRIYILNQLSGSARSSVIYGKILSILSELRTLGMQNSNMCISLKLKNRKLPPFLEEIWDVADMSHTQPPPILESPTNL
# Sequence of CfEcR (CDEF)/CfUSP, GST fusion protein (O76202 whole entry, further chain, the tested form may be a part): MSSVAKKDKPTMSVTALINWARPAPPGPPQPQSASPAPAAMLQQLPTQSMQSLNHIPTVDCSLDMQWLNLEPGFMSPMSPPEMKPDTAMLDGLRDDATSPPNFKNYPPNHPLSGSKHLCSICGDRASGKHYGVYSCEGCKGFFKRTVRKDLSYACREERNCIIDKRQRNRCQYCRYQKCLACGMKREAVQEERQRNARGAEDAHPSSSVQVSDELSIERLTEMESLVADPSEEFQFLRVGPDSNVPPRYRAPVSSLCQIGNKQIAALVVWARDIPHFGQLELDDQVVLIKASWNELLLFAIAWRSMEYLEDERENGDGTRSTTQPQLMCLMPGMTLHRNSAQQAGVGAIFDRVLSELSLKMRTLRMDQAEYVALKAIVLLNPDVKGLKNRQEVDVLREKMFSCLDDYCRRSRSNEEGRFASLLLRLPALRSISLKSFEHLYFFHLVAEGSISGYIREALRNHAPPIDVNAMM
# [5] = 33/33.3 μM ligand, RLU relative to DMSO
# [6] = 33 μM ligand, 48 h, RLU relative to DMSO
# [7] = maximum fold induction relative to that of GS-E ligand
# [8] = HEK293, 33 μM ligand, 48 h, RLU relative to DMSO
Structure (SMILES),"Insect Toxicity % control @ 150 ppm, CL (Cabbage Looper) [% @ 150]","Insect Toxicity % control @ 150 ppm, BAW (Beet Armyworm) [% @ 150]","Insect Toxicity % control @ 150 ppm, MTA [1]","Insect Toxicity % control @ 150 ppm, TBW (Tobacco Budworm) [% @ 150]","Fold Induction Average, Z3 assay (Bombyx mori EcR (VBE); [6])","Insect Toxicity % control @ 150 ppm, WFN (WFN (white fly)) [% @ 150]","fold induction at 33 µM (Bombyx mori EcR (VBE); HEK293, 48 h)",EC50 [3] [µM],fold induction at 33.3 µM [3],"Rel Max FI, 27-63 assay [3]",further results
CC1(C)ON=C(c2cccc(C(F)(F)F)c2)N1NC(=O)Nc1ccccc1 [RG-120001],20,80,0% @ 150,0,0.3,0,–,–,–,–,"Fold Induction Average, 13B3 assay [2, 5]: 3.3"
CC1(C)ON=C(c2cccc(C(F)(F)F)c2)N1NC(=O)c1ccccc1 [RG-120015],0,80,0% @ 150,0,0.8,0,–,–,–,–,–
CC1(C)ON=C(c2cccc(C(F)(F)F)c2)N1NC(=O)Cc1ccccc1 [RG-120021],0,100,51% @ 150,0,0.7,0,–,–,–,–,–
CCc1ccc(C(=O)NN2C(c3ccccc3OC)=NOC2(C)C)cc1 [RG-120026],0,100,40% @ 150,0,–,0,41.1,> 33,8.5,0,fold induction at 33.3 µM [2]: 0.9
CCc1ccc(C(=O)NN2C(c3ccc(Cl)cc3)=NOC2(C)C)cc1 [RG-120035],100,40,0% @ 150,0,–,0,9.1,–,–,–,fold induction at 33.3 µM [2]: 1.2
CCC1(C)ON=C(c2cc(C)cc(C)c2)N1NC(=O)c1ccccc1 (stereo not shown) [RG-120039],–,–,–,–,–,–,–,–,–,–,EC50 [4]: 0.203 µM
Cc1cccc(C(=O)NN2C(c3cc(C)cc(C)c3)=NOC2(C)C)c1 [RG-120077],100,50,0% @ 150,0,14.6,0,–,–,–,–,"Fold Induction Average, 13B3 assay [2, 5]: 0.4"
CCc1c(OC)cccc1C(=O)NN1C(c2ccccc2)=NOC12CCCC2 [RG-120092],–,–,–,–,–,–,–,7.16,2190,1.15,"Insect Toxicity LC50, CL (Cabbage Looper; in vivo): 13 ppm; Insect Toxicity LC50, BAW (Beet Armyworm; in vivo): 47 ppm; Insect Toxicity LC50, MTA ([1]; in vivo): >150 ppm; Insect Toxicity LC50, TBW (Tobacco Budworm; in vivo): 98 ppm; Insect Toxicity LC50, WFN (WFN (white fly); in vivo): >150 ppm"
COc1ccc(C2=NOC(C)(C)N2NC(=O)c2ccccc2)c(OC)c1 [RG-120096],60,0,74 @ 150%,0,–,55,0.7,–,–,–,"EC50 [2]: > 33.3 µM; fold induction at 33.3 µM [2]: 0.2; Rel Max FI, 13B3 assay [2, 7]: 0; EC50 (Bombyx mori EcR (VBE)): > 50 µM; Rel Max FI, Z3 assay (Bombyx mori EcR (VBE); [7]): 0"
CCc1c(OC)cccc1C(=O)NN1C(c2ccc(Cl)cc2)=NOC1(C)C [RG-120099],40,100,0% @ 150,0,–,0,0.2,~20,1330,0.64,–
CCc1ccc(C(=O)NN2C(c3ccccc3)=NOC2(C)CC)cc1 (stereo not shown) [RG-120137],–,–,–,–,–,–,–,> 33,4.6,0,"fold induction at 33.3 µM [2, 5]: 5.3; fold induction at 33 µM (Bombyx mori EcR (VBE); [8]): 59"
CCc1c(OC)cccc1C(=O)NN1C(c2ccccc2)=NOC12CCOCC2 [RG-120159],–,–,–,–,–,–,–,> 33,3.7,0,"fold induction at 33.3 µM [2, 5]: 0.1; fold induction at 33 µM (Bombyx mori EcR (VBE); [8]): 0.2"
